Values after ≈ are worked out from the molar mass of the structure shown. Like-named read-outs stand apart in the source and are kept apart here.
Columns and labels:
[1] = Pharmacokinetics in the mouse, plasma and lung tissue; assay type: in vivo; settings: oral gavage 10 mg/kg; for Lung AUC / Lung Cmax: mouse lung tissue
Experimental: The pharmacokinetics of compounds of formula (VIII) and compounds of formula (II) and (III) were measured in the mouse. Compounds were administered either intravenously (i.v.) at 1 mg/kg, or per oral gavage (p.o.) at 10 mg/kg. Plasma samples were taken and analyzed by LC/MS-MS. For lung tissue pharmacokinetics, lungs were removed and homogenized, followed by analyzis by LC/MS-MS.

dog = experiment: Safety of intravenous dosing in dog models; settings: intravenous 9 mg/kg
anesthetized guinea pigs = experiment: Cardiovascular safety, QTc interval in anesthetized guinea pigs, i.v. bolus; assay type: in vivo, guinea pig; settings: for QTc prolongation (% above vehicle): anesthetized guinea pig, incremental i.v. bolus doses 0.47 to 15 mg/kg
Experimental: (§1) Total doses of drug (0.47, 0.94, 1.88, 3.75, 7.5, and 15 mg/kg) or equivalent volumes of vehicle were administered incrementally as an i.v. bolus to groups of 6 anesthetized rats or guinea pigs at 0, 15, 30, 45, 60, and 75 minutes. Hemodynamic parameters including mean arterial pressure (MAP) and heart rate (HR), and ECG parameters (QT and PR intervals and QRS duration) were recorded. For the rat, injection of vehicle gave a 16% increase in QT interval over baseline. For the guinea pig, injection of vehicle gave a 3% increase in QT interval over baseline.

anesthetized rats = experiment: Cardiovascular safety, QT interval in anesthetized rats, i.v. bolus; assay type: in vivo, rat; settings: for QT prolongation (% above vehicle): anesthetized rat, incremental i.v. bolus doses 0.47 to 15 mg/kg
Experimental: as §1

human hepG2 hepatocytes = experiment: In vitro hepatotoxicity, resazurin and Nile Red staining; assay type: cell-based; settings: 100 μM
Experimental: In one experiment, hepatotoxicity was estimated by overnight incubation of compounds at 3, 10, 30, 100, or 300 μM with cultured rat or human hepG2 hepatocytes, followed by staining of the cells with resazurin to measure viability or with Nile Red to measure steatosis. The minimal drug concentration at which changes in dye binding were observed was noted as the minimal effective concentration. The compound of formula (VIII) wherein Z=3-quinolyl affected […] and steatosis in human HepG2 hepatocytes at 30 μM.

male beagle dogs = experiment: Cardiovascular safety in telemetered dogs, intravenous infusion; assay type: in vivo, dog
Text: Four male beagle dogs, obtained from Marshall Farms USA, Inc. (North Rose, N.Y.), were surgically instrumented with telemetry transducers (Data Sciences International, type RL11M2-D70-PCT) to assess arterial blood pressure (ABP) and lead II electrocardiogram (ECG) parameters.
The dosing route was an intravenous infusion jugular vein access). The infusion was accomplished using a CADD Prizm® ambulatory infusion pump attached to a jacket worn by the dog. The dose duration for the intravenous infusion was 30 min for all doses administered, except the last dose (30 mg/kg) where the infusion period was extended to 45 min to accommodate the larger dose volume required for this dose. The vehicle dose and diluent for the test article was 0.05-M sodium citrate in sterile water for injection.
There was one treatment group of four non-naïve dogs and the study was comprised of both pharmacokinetic and telemetry phases, as summarized in the dose administration table for compound (III) (Table 16) below. At least one week was given between dosings to allow clearance of the drug.
For the telemetry phase of the study, collection of hemodynamic and lead II ECG data commenced approximately 30 min prior to dosing and ended approximately 6 h post-dose. Systolic blood pressure (SBP), diastolic blood pressure (DBP), HR, and lead II ECG variables (PR interval, QRS duration, RR interval, and QT interval) were acquired continuously from each animal during each dose day recording session. The QT interval was corrected for variations in HR using the Fridericia's QTc interval (QTcF).
Data acquired following treatment with vehicle or compound (III) were extracted at −10, −5, 0, 10, 20, 30, 35, 45, 60, 90, 150, 270, and 390 min relative to the start dose time. For all blood pressure and ECG parameters, data following treatment with compound (III) were compared to the time-matched vehicle dose data. Statistical comparisons were made using a one-way ANOVA for repeated measures, followed by the Dunnett's post-hoc test when statistical significance was detected with the ANOVA. Changes were considered statistically significant when p<0.05.
A complete visual scan of the ECG waveforms from the vehicle, 11 mg/kg dose, and 15 mg/kg dose of compound (III) was conducted. All waveforms were examined for gross changes in waveform morphology and arrhythmogenesis.

S. pyogenes = experiment: MIC, NCCLS broth microdilution, respiratory pathogens; assay type: cell-based; settings: Streptococcus pyogenes
Experimental: (§2) Minimum inhibitory concentrations (“MICs”) were determined by the NCCLS broth microdilution procedure for susceptibility testing for bacteria that grow aerobically (National Committee for Clinical Laboratory Standards, 1997. Methods for dilution antimicrobial susceptibility tests for bacteria that grow aerobically, 4th ed. Approved standard. NCCLS Document M7-A4. National Committee for Clinical Laboratory Standards, Villanova, Pa.). Stock solutions were prepared on the day of the test and appropriate aliquots were added to cation adjusted Mueller-Hinton broth (CAMHB, DIFCO) or Haemophilus test media. Two-fold serial dilutions were prepared and added to wells in microtiter plates. Final test concentrations ranged from 8 to 0.004 ug/ml. Broth cultures of bacteria inoculated from growth on overnight plates for all test bacteria except Streptococcus pneumoniae and Haemophilus influenzae were incubated at 35° C. and then adjusted to the Kirby Bauer standard and diluted in CAMHB to achieve a final inoculum concentration of approximately 5×10^5 CFU/ml. Inocula for S. pneumoniae and H. influenzae were prepared by directly suspending colonies from an overnight plate, adjusting the turbidity and diluting as above. S. pneumoniae media was supplemented with 3% lysed horse blood. All plates were incubated in ambient air at 35° C. for 20-24 h for S. pneumoniae and Haemophilus influenzae and 16-20 h for all other bacteria.

Streptococcus pneumoniae = experiment: as above; assay type: cell-based; settings: S. pneumoniae
Experimental: as §2

Haemophilus influenzae = experiment: as above; assay type: cell-based; settings: H. influenzae
Experimental: as §2

M. catarrhalis = experiment: as above; assay type: cell-based; settings: Moraxella catarrhalis
Experimental: as §2

[2] = system: Streptococcus pneumoniae ATCC 6303; experiment: rat lower respiratory tract infection (lung pneumonia) model; assay type: in vivo; settings: for Log CFU/g (avg, n = 8): rat lungs, 12 hours after the last dose
Experimental: The in vivo efficacy of compounds (II) and (III) were evaluated in a rat lower respiratory tract infection model. Groups of 8 rats were infected intratracheally with 0.5 mL containing 10^6 CFUs of Streptococcus pneumoniae ATCC 6303 in 5% hog gastric mucin. Compounds dissolved in ethanol were administered by oral gavage daily over 3 days starting 18 hours post-inoculation. Lungs were aseptically removed from survivors 12 hours after the last dose and examined for visible signs of infection, then homogenized in sterile PBS and plated for determination of CFUs by log plating on Columbia agar-nalidixic acid plates.

[3] = genotype sensitive, read-out: MIC50
[4] = genotype sensitive, read-out: MIC90

SMILES: CC1CC(N(C)C)C(O)C(O[C@@H]2[C@@H](C)C(=O)[C@](C)(F)C(=O)O[C@H](CCF)[C@@]3(C)OC(=O)N[C@@H]3[C@@H](C)C(=O)[C@H](C)C[C@@]2(C)OC/C=C/c2ccc3nccnc3c2)O1 (stereo partly shown) [H]
- Lung AUC [1]: 11.0 ug/mL-h
- Lung Cmax [1]: 3000 ng/mL
- Plasma AUC ([1]; mouse plasma): 2.1 ug/mL-h
- Plasma Cmax ([1]; mouse plasma): 670 ng/mL
- toxicity, severe clinical effects upon intravenous dosing (dog): extremely toxic
- QTc prolongation (% above vehicle) (anesthetized guinea pigs): 4 % above vehicle
- QT prolongation (% above vehicle) (anesthetized rats): 15 % above vehicle

SMILES: CC1CC(N(C)C)C(O)C(O[C@@H]2[C@@H](C)C(=O)[C@@H](C)C(=O)O[C@H](CCF)[C@@]3(C)OC(=O)N[C@@H]3[C@@H](C)C(=O)[C@H](C)C[C@@]2(C)OC/C=C/c2ccc3cccnc3c2)O1 (stereo partly shown) [Compound (II), 6-O-(1-(7-quinolyl)-3-propenyl)-11-amino-11-deoxy-3-(descladinosyl)-3-oxo-15-fluoroerythromycin A-11,12-cyclic carbamate]
- Lung AUC [1]: 1.42 ug/mL-h
- Lung Cmax [1]: 260 ng/mL
- AUC ([1]; mouse plasma): 890 ng·h/mL
- Cmax ([1]; mouse plasma): 260 ng/mL
- effects on metabolic stability and steatosis (human hepG2 hepatocytes): No effects
- heart rate-corrected QT interval (QTc), FIG. 5 (male beagle dogs; male beagle dogs, intravenous infusion 15 mg/kg over 30 minutes): No significant increase in QTc
- effects on cardiac parameters, including QT interval (male beagle dogs; telemetered dogs, intravenous infusion up to 15 mg/kg): no effects
- QTc prolongation (% above vehicle) (anesthetized guinea pigs): 1 % above vehicle
- effect on the QTc interval in the anesthetized guinea pig (anesthetized guinea pigs; guinea pig, cumulative doses up to 30 mg/kg, relative to vehicle controls): no statistically significant effects
- MIC50 (S. pyogenes; genotype ermB): 0.12 µg/mL (≈ 0.153 µM)
- MIC90 (S. pyogenes; genotype ermB): 1 µg/mL (≈ 1.28 µM)
- MIC50 (S. pyogenes; genotype mef, read-out: MIC50): 0.12 µg/mL (≈ 0.153 µM)
- MIC90 (S. pyogenes; genotype mef, read-out: MIC90): 0.25 µg/mL (≈ 0.319 µM)
- MIC50 (S. pyogenes; [3]): 0.03 µg/mL (≈ 0.0383 µM)
- MIC90 (S. pyogenes; [4]): 0.03 µg/mL (≈ 0.0383 µM)
- MIC50 (Streptococcus pneumoniae; 20 h, genotype ermB + mef): 1 µg/mL
- MIC50 (Streptococcus pneumoniae; genotype ermB): 0.12 µg/mL (≈ 0.153 µM)
- MIC90 (Streptococcus pneumoniae; genotype ermB): 0.12 µg/mL (≈ 0.153 µM)
- MIC90 (Streptococcus pneumoniae; genotype ermB + mef): 2 µg/mL
- MIC50 (Streptococcus pneumoniae; genotype mef, read-out: MIC50): 0.25 µg/mL (≈ 0.319 µM)
- MIC90 (Streptococcus pneumoniae; genotype mef, read-out: MIC90): 0.25 µg/mL (≈ 0.319 µM)
- MIC50 (Streptococcus pneumoniae; [3]): 0.03 µg/mL (≈ 0.0383 µM)
- MIC90 (Streptococcus pneumoniae; [4]): 0.03 µg/mL (≈ 0.0383 µM)
- MIC50 (Haemophilus influenzae; resistant): > 8 µg/mL
- MIC90 (Haemophilus influenzae; resistant): > 8 µg/mL
- MIC50 (Haemophilus influenzae; sensitive): 2 µg/mL (≈ 2.55 µM)
- MIC90 (Haemophilus influenzae; sensitive): 4 µg/mL (≈ 5.1 µM)
- MIC50 (M. catarrhalis): 0.12 µg/mL (≈ 0.153 µM)
- MIC90 (M. catarrhalis): 0.12 µg/mL (≈ 0.153 µM)
- Log CFU/g (avg, n = 8) ([2]; 0.5 mg/kg oral gavage daily over 3 days): 4.8 Log CFU/g
- Log CFU/g (avg, n = 8) ([2]; 2.5 mg/kg oral gavage daily over 3 days): 4.3 Log CFU/g
- % survivors ([2]; rat, 0.5 mg/kg oral gavage daily over 3 days): 78%
- % survivors ([2]; rat, 2.5 mg/kg oral gavage daily over 3 days): 88%
- reducing the bacterial load in the rat lungs and increasing survival relative to control animals ([2]; rat, oral gavage daily over 3 days): efficacious
- QT prolongation (% above vehicle) (anesthetized rats): −4 % above vehicle
- effect on the QT interval in the rat (anesthetized rats; rat): did not prolong the QT interval

— US7595300B2, “7-quinolyl ketolide antibacterial agents” (priority 2005, dated 2009)
